This assay deals with T1, human CGT (ceramide galactosyltransferase), CHO/CGT lysate (Homo sapiens, UniProt Q16880).
T1 construct: Full-length human CGT cDNA was cloned into the BamH1/Xho1 site of pcDNA3.1 (+); expressed in transfected cells; host or cells: Chinese hamster ovary (CHO) cells; lysate prepared with M-PER
T1 sequence (Q16880 21-541): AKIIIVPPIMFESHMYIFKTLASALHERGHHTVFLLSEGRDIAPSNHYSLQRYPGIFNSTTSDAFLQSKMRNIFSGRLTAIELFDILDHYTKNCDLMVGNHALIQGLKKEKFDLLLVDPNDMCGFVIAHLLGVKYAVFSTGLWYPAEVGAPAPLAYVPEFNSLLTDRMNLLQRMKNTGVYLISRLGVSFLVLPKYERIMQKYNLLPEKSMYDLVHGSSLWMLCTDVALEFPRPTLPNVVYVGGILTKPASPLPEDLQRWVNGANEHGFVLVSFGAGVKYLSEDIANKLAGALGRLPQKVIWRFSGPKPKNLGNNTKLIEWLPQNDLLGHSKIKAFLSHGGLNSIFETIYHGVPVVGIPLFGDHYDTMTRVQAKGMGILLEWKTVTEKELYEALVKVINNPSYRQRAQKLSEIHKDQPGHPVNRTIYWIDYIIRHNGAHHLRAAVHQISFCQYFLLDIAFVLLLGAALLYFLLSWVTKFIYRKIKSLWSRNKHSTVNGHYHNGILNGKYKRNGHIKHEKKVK
The experiment in a line: CGT enzyme assay, RapidFire/MS/MS readout (Table 1 ranges with one asterisk *). The assay is classed as biochemical. The conditions noted are these: RapidFire method (range with one asterisk *). The procedure, abridged:
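IC50s come from variable-slope dose-response fits of internal-standard-normalized C6-NBD-dihydro-galactosylceramide, measured by RapidFire/MS/MS (ESI negative). Reactions: 1 h, 37 °C, human CGT-expressing CHO lysate (4 μg), 0.001–50 μM compound, 10 μM NBD-dihydro-ceramide, 17.5 μM UDP-galactose, 0.5% DMSO, pH 7.2; 0.01% Tween 80 added for ** values.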

The record followed here is US20190322676A1, “CERAMIDE GALACTOSYLTRANSFERASE INHIBITORS FOR THE TREATMENT OF DISEASE” (BioMarin Pharmaceutical Inc., priority 2016, published 2019).

For orientation: IC50 means the concentration that inhibits the measured activity by half. Low values mean inhibition by little substance, high ones a need for much substance.

Structures can show the parent of a compound that is named as a salt.

Regarding `NC1CC2CCC(C1)N2C(=O)[C@@H](NS(=O)(=O)c1ccc2cc(OC3CCCC3)ccc2c1)C(F)(F)c1ccc(-c2ccc(C(F)(F)F)cc2)cc1` (stereo partly drawn) [Compound 55-1, N-((2R)-3-(3-amino-8-azabicyclo[3.2.1]octan-8-yl)-1,1-difluoro-3-oxo-1-(4′-(trifluoromethyl)-[1,1′-biphenyl]-4-yl)propan-2-yl)-6-(cyclopentyloxy) naphthalene-2-sulfonamide trifluoroacetate], the IC50 is < 1 µM.

In the case of `NC1CC2CCC(C1)N2C(=O)[C@H](NS(=O)(=O)c1ccc2cc(OC3CCCC3)ccc2c1)C(F)(F)c1ccc(-c2ccc(C(F)(F)F)cc2)cc1` (stereo partly drawn) [Compound 55-2, N-((2S)-3-(3-amino-8-azabicyclo[3.2.1]octan-8-yl)-1,1-difluoro-3-oxo-1-(4′-(trifluoromethyl)-[1,1′-biphenyl]-4-yl)propan-2-yl)-6-(cyclopentyloxy)naphthalene-2-sulfonamide trifluoroacetate], the IC50 lay within 1 to 10 µM.

`NC1CC2CCC(C1)N2C(=O)[C@@H](NS(=O)(=O)c1ccc2cc(OC3CCCC3)ccc2c1)C(F)(F)c1ccc(-c2ccc(F)cc2)cc1` (stereo partly drawn) [Compound 56-1, N-((2R)-3-(3-amino-8-azabicyclo[3.2.1]octan-8-yl)-1,1-difluoro-1-(4′-fluoro-[1,1′-biphenyl]-4-yl)-3-oxopropan-2-yl)-6-(cyclopentyloxy)naphthalene-2-sulfonamide trifluoroacetate]: the IC50 was < 1 µM.

As for `NC1CC2CCC(C1)N2C(=O)[C@H](NS(=O)(=O)c1ccc2cc(OC3CCCC3)ccc2c1)C(F)(F)c1ccc(-c2ccc(F)cc2)cc1` (stereo partly drawn) [Compound 56-2, N-((2S)-3-(3-amino-8-azabicyclo[3.2.1]octan-8-yl)-1,1-difluoro-1-(4′-fluoro-[1,1′-biphenyl]-4-yl)-3-oxopropan-2-yl)-6-(cyclopentyloxy)naphthalene-2-sulfonamide trifluoroacetate], the IC50 was 1 to 10 µM.

Consider `NCC1CCN(C(=O)[C@@H](NS(=O)(=O)c2ccc3cc(OC4CCCC4)ccc3c2)C(F)(F)c2ccc(Br)cc2)CC1` [Compound 57-1, (R)—N-(3-(4-(aminomethyl)piperidin-1-yl)-1-(4-bromophenyl)-1,1-difluoro-3-oxopropan-2-yl)-6-(cyclopentyloxy)naphthalene-2-sulfonamide trifluoroacetate], for which the concentration for half-maximal inhibition (IC50) is < 1 µM.

`NCC1CCN(C(=O)[C@H](NS(=O)(=O)c2ccc3cc(OC4CCCC4)ccc3c2)C(F)(F)c2ccc(Br)cc2)CC1` [Compound 57-2, (S)—N-(3-(4-(aminomethyl)piperidin-1-yl)-1-(4-bromophenyl)-1,1-difluoro-3-oxopropan-2-yl)-6-(cyclopentyloxy)naphthalene-2-sulfonamide trifluoroacetate] returned an IC50 of 10 to 30 µM.

Compound `CCCCOc1ccc(C(F)(F)[C@@H](C(=O)N2CCC(N)CC2)N(C)S(=O)(=O)c2ccc(OCC3CCCCC3)cc2)cc1` [Compound 58-1, (R)—N-(3-(4-aminopiperidin-1-yl)-1-(4-butoxyphenyl)-1,1-difluoro-3-oxopropan-2-yl)-4-(cyclohexylmethoxy)-N-methylbenzenesulfonamide] yielded a half-maximal inhibitory concentration (IC50) of 1 to 10 µM.

`CCCCOc1ccc(C(F)(F)[C@H](C(=O)N2CCC(N)CC2)N(C)S(=O)(=O)c2ccc(OCC3CCCCC3)cc2)cc1` [Compound 58-2, (S)—N-(3-(4-aminopiperidin-1-yl)-1-(4-butoxyphenyl)-1,1-difluoro-3-oxopropan-2-yl)-4-(cyclohexylmethoxy)-N-methylbenzenesulfonamide] yielded an IC50 of 10 to 30 µM.

For the compound `NC1CC2CCC(C1)N2C(=O)[C@@H](NS(=O)(=O)c1ccc(OCC2CCCCC2)cc1)C(F)(F)c1ccc(C(F)(F)F)cc1` (stereo partly drawn) [Compound 59-1, N-((2R)-3-(3-amino-8-azabicyclo[3.2.1]octan-8-yl)-1,1-difluoro-3-oxo-1-(4-(trifluoromethyl)phenyl)propan-2-yl)-4-(cyclohexylmethoxy)benzenesulfonamide], the half-maximal inhibitory concentration (IC50) is < 1 µM.

The compound `NC1CC2CCC(C1)N2C(=O)[C@H](NS(=O)(=O)c1ccc(OCC2CCCCC2)cc1)C(F)(F)c1ccc(C(F)(F)F)cc1` (stereo partly drawn) [Compound 59-2, N-((2S)-3-(3-amino-8-azabicyclo[3.2.1]octan-8-yl)-1,1-difluoro-3-oxo-1-(4-(trifluoromethyl)phenyl)propan-2-yl)-4-(cyclohexylmethoxy) benzenesulfonamide] returned an IC50 of 1 to 10 µM.

`NC1CC2CCC(C1)N2C(=O)[C@@H](NS(=O)(=O)c1ccc(OCC2CCCC2)cc1)C(F)(F)c1ccc(C(F)(F)F)cc1` (stereo partly drawn) [Compound 60-1, N-((2R)-3-(3-amino-8-azabicyclo[3.2.1]octan-8-yl)-1,1-difluoro-3-oxo-1-(4-(trifluoromethyl)phenyl)propan-2-yl)-4-(cyclopentylmethoxy) benzenesulfonamide] gave an IC50 of 1 to 10 µM.

Turning to `NC1CC2CCC(C1)N2C(=O)[C@H](NS(=O)(=O)c1ccc(OCC2CCCC2)cc1)C(F)(F)c1ccc(C(F)(F)F)cc1` (stereo partly drawn) [Compound 60-2, N-((2S)-3-(3-amino-8-azabicyclo[3.2.1]octan-8-yl)-1,1-difluoro-3-oxo-1-(4-(trifluoromethyl)phenyl)propan-2-yl)-4-(cyclopentylmethoxy)benzenesulfonamide], the half-maximal inhibitory concentration (IC50) was 10 to 30 µM.

For `NC1CCN(C(=O)[C@@H](NS(=O)(=O)c2ccc3cc(OC4CCCC4)ccc3c2)C(F)(F)c2ccc(Oc3ccccc3)cc2)CC1` [Compound 61-1, (R)—N-(3-(4-aminopiperidin-1-yl)-1,1-difluoro-3-oxo-1-(4-phenoxyphenyl)propan-2-yl)-6-(cyclopentyloxy)naphthalene-2-sulfonamide], the IC50 is < 1 µM.

For `NC1CCN(C(=O)[C@H](NS(=O)(=O)c2ccc3cc(OC4CCCC4)ccc3c2)C(F)(F)c2ccc(Oc3ccccc3)cc2)CC1` [Compound 61-2, (S)—N-(3-(4-aminopiperidin-1-yl)-1,1-difluoro-3-oxo-1-(4-phenoxyphenyl)propan-2-yl)-6-(cyclopentyloxy)naphthalene-2-sulfonamide], the IC50 is < 1 µM.

In the case of `CN([C@H](C(=O)N1CCC(N)CC1)C(F)(F)c1ccc(Oc2ccccc2)cc1)S(=O)(=O)c1ccc2cc(OC3CCCC3)ccc2c1` [Compound 62-1, (R)—N-(3-(4-aminopiperidin-1-yl)-1,1-difluoro-3-oxo-1-(4-phenoxyphenyl)propan-2-yl)-6-(cyclopentyloxy)-N-methylnaphthalene-2-sulfonamide trifluoroacetate], the half-inhibitory concentration (IC50) lay within 1 to 10 µM.

As to `CN([C@@H](C(=O)N1CCC(N)CC1)C(F)(F)c1ccc(Oc2ccccc2)cc1)S(=O)(=O)c1ccc2cc(OC3CCCC3)ccc2c1` [Compound 62-2, (S)—N-(3-(4-aminopiperidin-1-yl)-1,1-difluoro-3-oxo-1-(4-phenoxyphenyl)propan-2-yl)-6-(cyclopentyloxy)-N-methylnaphthalene-2-sulfonamide trifluoroacetate], the concentration for half-maximal inhibition (IC50) is 1 to 10 µM.

`NC1CCN(C(=O)[C@@H](NS(=O)(=O)c2ccc(OCC3CCCCC3)cc2)C(F)(F)c2ccc(Oc3ccccc3)cc2)CC1` [Compound 63-1, (R)—N-(3-(4-aminopiperidin-1-yl)-1,1-difluoro-3-oxo-1-(4-phenoxyphenyl)propan-2-yl)-4-(cyclohexylmethoxy)benzenesulfonamide trifluoroacetate] showed an IC50 of 1 to 10 µM.

Compound `NC1CCN(C(=O)[C@H](NS(=O)(=O)c2ccc(OCC3CCCCC3)cc2)C(F)(F)c2ccc(Oc3ccccc3)cc2)CC1` [Compound 63-2, (S)—N-(3-(4-aminopiperidin-1-yl)-1,1-difluoro-3-oxo-1-(4-phenoxyphenyl)propan-2-yl)-4-(cyclohexylmethoxy)benzenesulfonamide trifluoroacetate] returned a half-inhibitory concentration (IC50) of 10 to 30 µM.

Compound `CN([C@H](C(=O)N1CCC(N)CC1)C(F)(F)c1ccc(Oc2ccccc2)cc1)S(=O)(=O)c1ccc(OCC2CCCCC2)cc1` [Compound 64-1, (R)—N-(3-(4-aminopiperidin-1-yl)-1,1-difluoro-3-oxo-1-(4-phenoxyphenyl)propan-2-yl)-4-(cyclohexylmethoxy)-N-methylbenzenesulfonamide] yielded an IC50 of 1 to 10 µM.

On to `CN([C@@H](C(=O)N1CCC(N)CC1)C(F)(F)c1ccc(Oc2ccccc2)cc1)S(=O)(=O)c1ccc(OCC2CCCCC2)cc1` [Compound 64-2, (S)—N-(3-(4-aminopiperidin-1-yl)-1,1-difluoro-3-oxo-1-(4-phenoxyphenyl)propan-2-yl)-4-(cyclohexylmethoxy)-N-methylbenzenesulfonamide], for which the half-maximal inhibitory concentration (IC50) lay in the range of 10 to 30 µM.

As to `NC1CC2CCC(C1)N2C(=O)[C@@H](NS(=O)(=O)c1ccc2cc(OC3CCCC3)ccc2c1)C(F)(F)c1cccc(Br)c1` (stereo partly drawn) [Compound 65-1, N-((2R)-3-(3-amino-8-azabicyclo[3.2.1]octan-8-yl)-1-(3-bromophenyl)-1,1-difluoro-3-oxopropan-2-yl)-6-(cyclopentyloxy)naphthalene-2-sulfonamide], the 50% inhibitory concentration (IC50) was 1 to 10 µM.
